{"source": "patent US20170318812A1", "about": "“Plant and Crop Growth Regulating/Biostimulant Formulations and Methods of Use” (Arysta Lifescience North America, LLC, priority 2014, published 2017)", "system": "TRZAX Triticum aestivum (Soft wheat)", "test": "Ipfencarbazone biostimulant effect, early post emergence foliar application, greenhouse pots, plant height: wheat", "assay_type": "in vivo", "conditions": "for HEIGHT, percent of untreated check (APoC) / HEIGHT, treatment mean: TRZAX BRS327", "description": "The original objective of this Example was to evaluate the herbicidal effect of ipfencarbazone when applied as a post emergent treatment to a range of selected crops and weeds. Unexpectedly, crop plant growth stimulation was observed. The actual species of weeds and crops are listed in the summary data tabulated below and in FIGS. 1-13. By convention each plant species has a Bayer code (5-letter name) with the scientific name for the plant referenced in FIGS. 1-13. In each Figure, each tray contains the same configuration of weeds and/or crops. In each Figure there is one replication of each treatment (six treatments in total). The top three photographs in each Figure show the Bayer Codes and bottom three photographs are aligned with the top three facilitating viewing of the same plant species. Throughout the Examples various abbreviations as conventional shorthand notation and will be appreciated by those skilled in the art. Some exemplary abbreviations include, “CV”=Co-efficient of Variation,” “LSD”=Least Significant Difference” (G/L (gram per L) AND GA/L (gram of active ingredient per L); “SC”=suspension concentrate formulation. The diluent in all treatments was water. By convention factors that are identical in all treatments (e.g. diluent and surfactant) are not listed in each treatment.\nMethods: The indicated size pots (see Tables below) are filled with a specific soil, the soil properties being indicated below. The referenced crops and weeds are planted by hand in each pot. […] The experiments include six treatments each replicated three times on each crop/weed species. At a specific time after emergence each crop and weed species was treated with ipfencarbazone plus a non-ionic surfactant (NIS). In the present Example, the surfactant employed was ENERGIC™ (non-ionic surfactant). The application timing is indicated in each of the Tables (1 or 2 leaf stage) below. Ipfencarbazone plus surfactant was diluted in water and applied at a rate equivalent to about 250 L/ha. Ipfencarbazone was applied using a track sprayer. After treatment, the pots were randomized in a greenhouse. At each assessment (indicated by “days after treatment” or DAT) the height of each plant was measured. The letters next to each mean indicate the level of statistical significance.\nReplications: 3, Untreated treatments: 1, Design: Randomized Complete Block (RCB), Treatment units: Treated ‘Plot’ experimental unit size, Dry Form. Unit: %, Treated ‘Plot’ experimental unit size Width: 1 meter, Treated ‘Plot’ experimental unit size Length: 1.4 meters, Application volume: 250 L/ha, Mix size: 0.15 liters, […]", "key": {"[1]": {"conditions": "Soft wheat BRS327, 15 DA-A, 62.5 g ai/ha + Energic NIS 0.2 % v/v"}, "[2]": {"conditions": "Soft wheat BRS327, 15 DA-A, 250 g ai/ha + Energic NIS 0.2 % v/v"}, "[3]": {"conditions": "Soft wheat BRS327, 15 DA-A, 1000 g ai/ha + Energic NIS 0.2 % v/v"}, "[4]": {"conditions": "Soft wheat BRS327, 28 DA-A, 62.5 g ai/ha + Energic NIS 0.2 % v/v"}, "[5]": {"conditions": "Soft wheat BRS327, 28 DA-A, 125 g ai/ha + Energic NIS 0.2 % v/v"}, "[6]": {"conditions": "Soft wheat BRS327, 28 DA-A, 250 g ai/ha + Energic NIS 0.2 % v/v"}, "[7]": {"conditions": "Soft wheat Iguaçú, 15 DA-A, 62.5 g ai/ha + Energic NIS 0.2 % v/v"}, "[8]": {"conditions": "Soft wheat Iguaçú, 15 DA-A, 250 g ai/ha + Energic NIS 0.2 % v/v"}, "[9]": {"conditions": "Soft wheat Iguaçú, 15 DA-A, 500 g ai/ha + Energic NIS 0.2 % v/v"}, "[10]": {"conditions": "Soft wheat Iguaçú, 15 DA-A, 1000 g ai/ha + Energic NIS 0.2 % v/v"}, "[11]": {"conditions": "Soft wheat Iguaçú, 28 DA-A, 62.5 g ai/ha + Energic NIS 0.2 % v/v"}, "[12]": {"conditions": "Soft wheat Iguaçú, 28 DA-A, 125 g ai/ha + Energic NIS 0.2 % v/v"}, "[13]": {"conditions": "Soft wheat Iguaçú, 28 DA-A, 250 g ai/ha + Energic NIS 0.2 % v/v"}, "[14]": {"conditions": "Soft wheat Iguaçú, 28 DA-A, 500 g ai/ha + Energic NIS 0.2 % v/v"}, "[15]": {"conditions": "Soft wheat Itaipú, 15 DA-A, 125 g ai/ha + Energic NIS 0.2 % v/v"}, "[16]": {"conditions": "Soft wheat Itaipú, 15 DA-A, 250 g ai/ha + Energic NIS 0.2 % v/v"}, "[17]": {"conditions": "Soft wheat Itaipú, 15 DA-A, 1000 g ai/ha + Energic NIS 0.2 % v/v"}, "[18]": {"conditions": "Soft wheat Itaipú, 28 DA-A, 125 g ai/ha + Energic NIS 0.2 % v/v"}, "[19]": {"conditions": "Soft wheat Itaipú, 28 DA-A, 250 g ai/ha + Energic NIS 0.2 % v/v"}}, "note": "Where “and” joins values, the source holds several entries; their conditions need not be identical. Equal values may be shown once."}
{"smiles": "CC(C)N(C(=O)n1cnn(-c2ccc(Cl)cc2Cl)c1=O)c1ccc(F)cc1F", "note": "[ARY-0572-001, ipfencarbazone]", "values": [{"measurement": "Plant HEIGHT, Mean", "setting": "[1]", "value": 27.2, "unit": "cm"}, {"measurement": "Plant HEIGHT, single plots", "setting": "[1]", "value": "25.0 cm and 30.8 cm and 25.7 cm"}, {"measurement": "Plant HEIGHT, Mean", "setting": "Soft wheat BRS327, 15 DA-A, 125 g ai/ha + Energic NIS 0.2 % v/v", "value": 27.6, "unit": "cm"}, {"measurement": "Plant HEIGHT, Mean", "setting": "[2]", "value": 32.0, "unit": "cm"}, {"measurement": "Plant HEIGHT, single plots", "setting": "[2]", "value": "31.0 cm and 32.3 cm and 32.7 cm"}, {"measurement": "Plant HEIGHT, Mean", "setting": "Soft wheat BRS327, 15 DA-A, 500 g ai/ha + Energic NIS 0.2 % v/v", "value": 24.4, "unit": "cm"}, {"measurement": "Plant HEIGHT, Mean", "setting": "[3]", "value": 17.3, "unit": "cm"}, {"measurement": "Plant HEIGHT, single plots", "setting": "[3]", "value": "23.3 cm and 11.7 cm and 17.0 cm"}, {"measurement": "Plant HEIGHT, Mean", "setting": "[4]", "value": 33.0, "unit": "cm"}, {"measurement": "Plant HEIGHT, single plots", "setting": "[4]", "value": "27.7 cm and 43.3 cm and 28.0 cm"}, {"measurement": "Plant HEIGHT, Mean", "setting": "[5]", "value": 35.0, "unit": "cm"}, {"measurement": "Plant HEIGHT, single plots", "setting": "[5]", "value": "49.0 cm and 24.7 cm and 31.3 cm"}, {"measurement": "Plant HEIGHT, Mean", "setting": "[6]", "value": 45.6, "unit": "cm"}, {"measurement": "Plant HEIGHT, single plots", "setting": "[6]", "value": "45.7 cm and 46.0 cm and 45.0 cm"}, {"measurement": "Plant HEIGHT, Mean", "setting": "Soft wheat BRS327, 28 DA-A, 500 g ai/ha + Energic NIS 0.2 % v/v", "value": 31.6, "unit": "cm"}, {"measurement": "Plant HEIGHT, Mean", "setting": "Soft wheat BRS327, 28 DA-A, 1000 g ai/ha + Energic NIS 0.2 % v/v", "value": 28.2, "unit": "cm"}, {"measurement": "Plant HEIGHT, Mean", "setting": "[7]", "value": 24.6, "unit": "cm"}, {"measurement": "Plant HEIGHT, single plots", "setting": "[7]", "value": "20.2 cm and 28.0 cm and 25.7 cm"}, {"measurement": "Plant HEIGHT, Mean", "setting": "Soft wheat Iguaçú, 15 DA-A, 125 g ai/ha + Energic NIS 0.2 % v/v", "value": 26.1, "unit": "cm"}, {"measurement": "Plant HEIGHT, Mean", "setting": "[8]", "value": 29.9, "unit": "cm"}, {"measurement": "Plant HEIGHT, single plots", "setting": "[8]", "value": "28.3 cm and 30.7 cm and 30.8 cm"}, {"measurement": "Plant HEIGHT, Mean", "setting": "[9]", "value": 23.8, "unit": "cm"}, {"measurement": "Plant HEIGHT, single plots", "setting": "[9]", "value": "30.3 cm and 18.7 cm and 22.3 cm"}, {"measurement": "Plant HEIGHT, Mean", "setting": "[10]", "value": 16.3, "unit": "cm"}, {"measurement": "Plant HEIGHT, single plots", "setting": "[10]", "value": "22.3 cm and 14.0 cm and 12.7 cm"}, {"measurement": "Plant HEIGHT, Mean", "setting": "[11]", "value": 29.2, "unit": "cm"}, {"measurement": "Plant HEIGHT, single plots", "setting": "[11]", "value": "24.0 cm and 36.3 cm and 27.3 cm"}, {"measurement": "Plant HEIGHT, Mean", "setting": "[12]", "value": 30.1, "unit": "cm"}, {"measurement": "Plant HEIGHT, single plots", "setting": "[12]", "value": "39.7 cm and 20.7 cm and 30.0 cm"}, {"measurement": "Plant HEIGHT, Mean", "setting": "[13]", "value": 43.3, "unit": "cm"}, {"measurement": "Plant HEIGHT, single plots", "setting": "[13]", "value": "39.7 cm and 50.3 cm and 40.0 cm"}, {"measurement": "Plant HEIGHT, Mean", "setting": "[14]", "value": 36.8, "unit": "cm"}, {"measurement": "Plant HEIGHT, single plots", "setting": "[14]", "value": "47.0 cm and 27.7 cm and 35.7 cm"}, {"measurement": "Plant HEIGHT, Mean", "setting": "Soft wheat Iguaçú, 28 DA-A, 1000 g ai/ha + Energic NIS 0.2 % v/v", "value": 18.7, "unit": "cm"}, {"measurement": "Plant HEIGHT, Mean", "setting": "Soft wheat Itaipú, 15 DA-A, 62.5 g ai/ha + Energic NIS 0.2 % v/v", "value": 23.8, "unit": "cm"}, {"measurement": "Plant HEIGHT, Mean", "setting": "[15]", "value": 25.5, "unit": "cm"}, {"measurement": "Plant HEIGHT, single plots", "setting": "[15]", "value": "33.3 cm and 19.8 cm and 23.3 cm"}, {"measurement": "Plant HEIGHT, Mean", "setting": "[16]", "value": 31.4, "unit": "cm"}, {"measurement": "Plant HEIGHT, single plots", "setting": "[16]", "value": "30.7 cm and 31.3 cm and 32.3 cm"}, {"measurement": "Plant HEIGHT, Mean", "setting": "Soft wheat Itaipú, 15 DA-A, 500 g ai/ha + Energic NIS 0.2 % v/v", "value": 22.2, "unit": "cm"}, {"measurement": "Plant HEIGHT, Mean", "setting": "[17]", "value": 15.7, "unit": "cm"}, {"measurement": "Plant HEIGHT, single plots", "setting": "[17]", "value": "22.0 cm and 13.0 cm and 12.0 cm"}, {"measurement": "Plant HEIGHT, Mean", "setting": "Soft wheat Itaipú, 28 DA-A, 62.5 g ai/ha + Energic NIS 0.2 % v/v", "value": 37.1, "unit": "cm"}, {"measurement": "Plant HEIGHT, Mean", "setting": "[18]", "value": 32.3, "unit": "cm"}, {"measurement": "Plant HEIGHT, single plots", "setting": "[18]", "value": "45.0 cm and 23.3 cm and 28.7 cm"}, {"measurement": "Plant HEIGHT, Mean", "setting": "[19]", "value": 47.8, "unit": "cm"}, {"measurement": "Plant HEIGHT, single plots", "setting": "[19]", "value": "45.0 cm and 46.7 cm and 51.7 cm"}, {"measurement": "Plant HEIGHT, Mean", "setting": "Soft wheat Itaipú, 28 DA-A, 500 g ai/ha + Energic NIS 0.2 % v/v", "value": 24.0, "unit": "cm"}, {"measurement": "Plant HEIGHT, Mean", "setting": "Soft wheat Itaipú, 28 DA-A, 1000 g ai/ha + Energic NIS 0.2 % v/v", "value": 18.4, "unit": "cm"}, {"measurement": "HEIGHT, percent of untreated check (APoC)", "setting": "62.5 g ai/ha, 15 DA-A", "value": "(145.5%)"}, {"measurement": "HEIGHT, treatment mean", "setting": "62.5 g ai/ha, 15 DA-A", "value": 27.2, "unit": "a cm"}, {"measurement": "HEIGHT, percent of untreated check (APoC)", "setting": "62.5 g ai/ha, 28 DA-A", "value": "(147.8%)"}, {"measurement": "HEIGHT, treatment mean", "setting": "62.5 g ai/ha, 28 DA-A", "value": 33.0, "unit": "a cm"}, {"measurement": "HEIGHT, percent of untreated check (APoC)", "setting": "125 g ai/ha, 15 DA-A", "value": "(147.6%)"}]}
